The values that follow come from US10774074B2, “2-(1-heteroarylpiperazin-4-yl)methyl-1,4-benzodioxane derivatives as alpha2C antagonists” (ORION CORPORATION, priority 2015, dated 2020).

For test [1], the target named is T1, human alpha2C receptors (Homo sapiens, UniProt P18825).
T1 construct: host or cells: CHO cells, cotransfected with pCEP-Gα16
T1 sequence (P18825 1-462): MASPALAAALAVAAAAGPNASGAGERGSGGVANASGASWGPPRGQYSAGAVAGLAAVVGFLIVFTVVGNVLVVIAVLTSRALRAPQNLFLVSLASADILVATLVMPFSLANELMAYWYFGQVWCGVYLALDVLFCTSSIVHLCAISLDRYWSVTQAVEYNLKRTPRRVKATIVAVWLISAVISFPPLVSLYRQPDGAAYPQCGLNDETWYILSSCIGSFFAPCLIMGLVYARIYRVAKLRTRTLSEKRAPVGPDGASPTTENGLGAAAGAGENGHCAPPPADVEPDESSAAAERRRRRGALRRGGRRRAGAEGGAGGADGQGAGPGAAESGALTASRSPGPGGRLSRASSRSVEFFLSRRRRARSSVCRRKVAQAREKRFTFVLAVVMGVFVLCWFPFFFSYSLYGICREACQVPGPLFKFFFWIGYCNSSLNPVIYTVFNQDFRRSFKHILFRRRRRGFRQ
Nature of the test: Determination of alpha2C antagonistic activity in vitro (FLIPR calcium assay, CHO cells). The class given is cell-based. The following applies: for Kb: Kb calculated with the Cheng-Prusoff equation from IC50, adrenaline as agonist, CHO cells, human alpha2C, read-out: Alpha 2C Adrenaline Kb; for IC50: antagonism of adrenaline stimulation, CHO cells stably transfected with human alpha2C receptor and Gα16, intracellular calcium (FLIPR), read-out: Alpha 2C Adrenaline IC50. The procedure:
(§1) EXPERIMENT 1: Determination of alpha2A and alpha2C Antagonistic Activity In Vitro
(§2) Chinese hamster ovary (CHO) cells stably transfected with human alpha2A or alpha2C receptors (University of Turku, Finland) were cotransfected with the expression vector pCEP-Gα16 (Molecular Devices, CA, USA) were used in this experiment. The cells were maintained at 37° C. in a 5% CO2/95% air atmosphere. The cells were cultured in HAM F-12 medium supplemented with 10% FCS, 25 mM HEPES, 100 IU/ml penicillin, 100 µg/ml streptomycin, 500 μg/ml geneticin and 240 μg/ml hygromycin B. The cells were subcultured twice weekly with 0.25% trypsin and 1 mM EDTA. The subculture ratio was 1:5-1:20. The growth medium was changed every 2 or 3 days. All cell culture reagents were from Gibco. The day before the experiment the cells were plated into black-walled, clear bottom 384-well plates at a density of 10,000 cells/well.
(§3) The growth medium was removed and the cells were incubated with the test compounds and the FLIPR Calcium 6 Assay reagent (Molecular Devices, CA, USA) for 2 h at 37° C. in dark. The test compounds (concentrations in cells 100 pM-10 μM) were dissolved in Probenecid-Ringer consisting of 150 mM NaCl, 3 mM KCl, 1.2 mM MgCl2, 1 mM CaCl2, 5 mM glucose, 20 mM HEPES and 2.5 mM probenecid (pH 7.4 adjusted with 1.0 M NaOH). The osmolarity was adjusted to 322 milliosmoles with Osmostat® OM-6020 osmometer (DIC Kyoto Daiichi Kagagu Co. Ltd, Japan). […] All experiments were performed at 37° C. For agonism measurements the test compounds dissolved in Probenecid-Ringer were applied by FLIPR Tetra at 15 s time point. In order to determine antagonism, the cells were stimulated either with 100 nM adrenaline or noradrenaline and the test compounds were added to the cells 2 h before the experiment with the FLIPR Calcium 6 Assay reagent. […] Typically, there were four replicates at each concentration and six different dose levels. For example, if the number of plates from which results were obtained was three, 72 (4*6*3) wells were thus measured to construct dose-response relationship. The samples were excited at 485 nm and emission was detected at 525 nm with a 515 nm cut-off filter. The minimum fluorescence value subtracted from the maximum value for each well was used in the calculations. ScreenWorks version 4.0 software was used for analyzing the results. Fitting of the antagonist dose-response results was performed with the free Hill equation and the IC50 values were fitted with IDBS XE software using model 200: y=(A+(B/(1+((x/C)^D)))), where A is the curve maximum, B the curve minimum and C equals the EC50 value. D is slope factor (Hill). Kb was calculated with the Cheng-Prusoff equation Kb=A/((B/C)+1), where A is the IC50 of antagonist, B the concentration of agonist and C the EC50 of the agonist.

The target of test [2] is T2, human alpha2A receptors (Homo sapiens, UniProt P08913).
T2 construct: host or cells: CHO cells, cotransfected with pCEP-Gα16
T2 sequence (P08913 1-465): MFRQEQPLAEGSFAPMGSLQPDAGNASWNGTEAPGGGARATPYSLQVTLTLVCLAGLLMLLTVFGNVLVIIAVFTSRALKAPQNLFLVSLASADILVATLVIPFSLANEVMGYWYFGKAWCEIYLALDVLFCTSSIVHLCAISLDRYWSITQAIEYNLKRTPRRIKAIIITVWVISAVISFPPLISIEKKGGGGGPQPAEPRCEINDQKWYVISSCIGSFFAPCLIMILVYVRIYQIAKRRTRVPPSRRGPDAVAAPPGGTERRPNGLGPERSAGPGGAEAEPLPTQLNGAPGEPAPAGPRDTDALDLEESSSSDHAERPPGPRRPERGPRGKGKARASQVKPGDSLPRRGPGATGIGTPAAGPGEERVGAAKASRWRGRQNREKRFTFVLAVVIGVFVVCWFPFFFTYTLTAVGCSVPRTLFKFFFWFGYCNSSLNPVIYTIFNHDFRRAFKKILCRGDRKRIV
Nature of the test: Determination of alpha2A antagonistic activity in vitro (FLIPR calcium assay, CHO cells). Format: cell-based. Particulars: for Kb: Kb calculated with the Cheng-Prusoff equation from IC50, adrenaline as agonist, CHO cells, human alpha2A, read-out: Alpha 2A Adrenaline Kb; for IC50: antagonism of adrenaline stimulation, CHO cells stably transfected with human alpha2A receptor and Gα16, intracellular calcium (FLIPR), read-out: Alpha 2A Adrenaline IC50. The procedure:
as §1, §2, §3

For `Cc1c(N2CCCC2=O)c(N2CCN(C[C@H]3COc4ccccc4O3)CC2)nn1C` [Compound of example 14, (S)-1-(3-(4-((2,3-Dihydrobenzo[b][1,4]dioxin-2-yl)methyl)piperazin-1-yl)-1,5-dimethyl-1H-pyrazol-4-yl)pyrrolidin-2-one], the Kb (in general, the equilibrium dissociation constant of an antagonist, usually derived from a functional assay) in test [1] was 0.29 nM; in test [2] it was 382 nM. Also, the results for the IC50 in test [1] and in test [2] were 0.03 nM and 8520 nM, respectively.
For `Cc1c(N2CCN(C)C2=O)c(N2CCN(C[C@H]3COc4ccccc4O3)CC2)nn1C` [Compound of example 15, (S)-1-(3-(4-((2,3-Dihydrobenzo[b][1,4]dioxin-2-yl)methyl)piperazin-1-yl)-1,5-dimethyl-1H-pyrazol-4-yl)-3-methylimidazolidin-2-one] the same measures were 1.64 nM, greater than 449 nM, 0.17 nM and greater than 10000 nM.
For `CC(=O)Nc1nsnc1N1CCN(C[C@H]2COc3ccccc3O2)CC1` [Compound of example 16, (S)—N-(4-(4-((2,3-Dihydrobenzo[b][1,4]dioxin-2-yl)methyl)piperazin-1-yl)-1,2,5-thiadiazol-3-yl)acetamide] the same measures were 4210 nM, greater than 449 nM, 424 nM and greater than 10000 nM.
`CC1(C)CCN(c2nsnc2N2CCN(C[C@H]3COc4ccccc4O3)CC2)C1=O` [Compound of example 17, (S)-1-(4-(4-((2,3-Dihydrobenzo[b][1,4]dioxin-2-yl)methyl)piperazin-1-yl)-1,2,5-thiadiazol-3-yl)-3,3-dimethylpyrrolidin-2-one]: in test [1], the Kb is less than 0.1 nM and the IC50 (commonly the concentration at which inhibition is half-maximal) was less than 0.01 nM. Besides, in test [2], the Kb was greater than 449 nM and the IC50 is greater than 10000 nM.
As to `c1cnc(Nc2nsnc2N2CCN(C[C@H]3COc4ccccc4O3)CC2)nc1` [Compound of example 18, (S)-4-(4-((2,3-Dihydrobenzo[b][1,4]dioxin-2-yl)methyl)piperazin-1-yl)-N-(pyrimidin-2-yl)-1,2,5-thiadiazol-3-amine], in test [1], the antagonist equilibrium constant (Kb) is 30.1 nM and the IC50 was 3.03 nM. In test [2], the Kb is 233 nM and the IC50 came out at 5190 nM.
For `c1ccc2c(c1)OC[C@H](CN1CCN(c3nsnc3Nc3ccncn3)CC1)O2` [Compound of example 19, (S)-4-(4-((2,3-Dihydrobenzo[b][1,4]dioxin-2-yl)methyl)piperazin-1-yl)-N-(pyrimidin-4-yl)-1,2,5-thiadiazol-3-amine] the same measures were less than 0.1 nM, less than 0.01 nM, 459 nM and 10200 nM.
Take `O=C1CCCN1c1ncsc1N1CCN(C[C@H]2COc3ccccc3O2)CC1` [Compound of example 20, (S)-1-(5-(4-((2,3-Dihydrobenzo[b][1,4]dioxin-2-yl)methyl)piperazin-1-yl)thiazol-4-yl)pyrrolidin-2-one]: in test [1], the Kb was 0.394 nM and the IC50 was 0.04 nM. For the same compound, in test [2], the Kb was 405 nM and the IC50 came to 9020 nM.
The matching figures for `CC1CCN(c2nsnc2N2CCN(C[C@H]3COc4ccccc4O3)CC2)C1=O` (stereo partly drawn) [Compound of example 21, 1-(4-(4-(((S)-2,3-Dihydrobenzo[b][1,4]dioxin-2-yl)methyl)piperazin-1-yl)-1,2,5-thiadiazol-3-yl)-3-methylpyrrolidin-2-one]: 0.38 nM, 0.04 nM, greater than 449 nM and greater than 10000 nM.
The matching figures for `c1ccc2c(c1)OC[C@H](CN1CCN(c3nncs3)CC1)O2` [Compound of example 22, (S)-2-(4-((2,3-Dihydrobenzo[b][1,4]dioxin-2-yl)methyl)piperazin-1-yl)-1,3,4-thiadiazole]: 1570 nM, 158 nM, greater than 449 nM and greater than 10000 nM.
For `COCc1nc(N2CCN(C[C@H]3COc4ccccc4O3)CC2)no1` [Compound of example 23, (S)-3-(4-((2,3-Dihydrobenzo[b][1,4]dioxin-2-yl)methyl)piperazin-1-yl)-5-(methoxymethyl)-1,2,4-oxadiazole] the same measures were 1350 nM, 136 nM, greater than 449 nM and greater than 10000 nM.
Regarding `O=C1CCCN1c1nsnc1N1CCN(C[C@H]2COc3ccccc3O2)CC1` [Compound of example 24, (S)-1-(4-(4-((2,3-Dihydrobenzo[b][1,4]dioxin-2-yl)methyl)piperazin-1-yl)-1,2,5-thiadiazol-3-yl)pyrrolidin-2-one], in test [1], the antagonist dissociation constant (Kb) was 0.546 nM and the IC50 was found to be 0.055 nM. For the same compound, in test [2], the Kb was 385 nM and the IC50 was 8570 nM.
`O=C1NCCN1c1nnc(N2CCN(C[C@H]3COc4ccccc4O3)CC2)s1` [Compound of example 25, (S)-1-(5-(4-((2,3-Dihydrobenzo[b][1,4]dioxin-2-yl)methyl)piperazin-1-yl)-1,3,4-thiadiazol-2-yl)imidazolidin-2-one]: in test [1], the Kb is 28.4 nM and the IC50 came to 2.86 nM. In test [2], the Kb is 514 nM and the IC50 worked out at 11500 nM.
For `O=C1OCCN1c1nsnc1N1CCN(C[C@H]2COc3ccccc3O2)CC1` [Compound of example 26, (S)-3-(4-(4-((2,3-Dihydrobenzo[b][1,4]dioxin-2-yl)methyl)piperazin-1-yl)-1,2,5-thiadiazol-3-yl)oxazolidin-2-one] the same measures were 183 nM, 18.5 nM, greater than 449 nM and greater than 10000 nM.
For the compound `NC(=O)c1nsnc1N1CCN(C[C@H]2COc3ccccc3O2)CC1` [Compound of example 27, (S)-4-(4-((2,3-Dihydrobenzo[b][1,4]dioxin-2-yl)methyl)piperazin-1-yl)-1,2,5-thiadiazole-3-carboxamide], in test [1], the Kb is 1650 nM and the IC50 stood at 166 nM. Besides, in test [2], the Kb is greater than 449 nM and the IC50 is greater than 10000 nM.
With `CN1CCN(c2nsnc2N2CCN(C[C@H]3COc4ccccc4O3)CC2)C1=O` [Compound of example 28, (S)-1-(4-(4-((2,3-Dihydrobenzo[b][1,4]dioxin-2-yl)methyl)piperazin-1-yl)-1,2,5-thiadiazol-3-yl)-3-methylimidazolidin-2-one], in test [1], the Kb is 1070 nM and the IC50 was determined as 108 nM. For the same compound, in test [2], the antagonist equilibrium constant (Kb) is greater than 449 nM and the IC50 is greater than 10000 nM.
